For test [1], the system named is S. enteritidis ATCC 13076. Nature of the test: microbe, parasite or virus in culture. Particulars: ATCC 13076. It counts as cell-based. Put shortly:
(§1)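 Standard CLSI broth microdilution (2021 guidelines) in MHB with exponential-phase inoculum.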

A further test relates to E. faecalis 1F-1. Nature of the test: microbe, parasite or virus in culture. It counts as cell-based. Particulars: 1F-1. Put shortly:
as §1

In test [2] the test system is E. faecalis A4 (VRE, VanA). Nature of the test: microbe, parasite or virus in culture. The class given is cell-based. As to conditions: A4 (VRE, VanA). The method in brief:
as §1

Test [3] concerns S. aureus ATCC 29213, MRSA T144, E. coli ATCC 25922, E. coli B2. Nature of the test: Time-killing assay. It counts as cell-based. As to conditions: MHB. The procedure:
Bacteria from the exponential phase were diluted into MHB at 1:1,000, and bacteria suspensions (~10^5 CFUs/mL for Gram-positive bacteria, ~10^6 CFUs/mL for Gram-negative bacteria) were mixed with various concentrations of LI14 peptide and incubated at 37 °C for 0.5, 1, 2, 4, and 12 h, respectively. At intervals, samples were serially diluted ten-fold and plated on MHA plates. The amount of primary CFUs/mL was determined after overnight incubation of bacterial colonies.

A further test relates to E. coli ATCC 25922. Nature of the test: microbe, parasite or virus in culture. It counts as cell-based, Escherichia coli. Particulars: ATCC 25922. The method in brief:
as §1

Test [4] relates to E. coli B2 (blaNDM-5 + mcr-1). In words: microbe, parasite or virus in culture. The class given is cell-based, Escherichia coli. Particulars: B2 (blaNDM-5 + mcr-1). The method in brief:
as §1

Test [5] relates to MRSA T144 and E. coli B2 established biofilms. In words: Treatment of established biofilms. It counts as cell-based. Particulars: 128 μg/mL LI14, 2 h. The procedure: In MHB medium, a mid-logarithmic growth-phase culture was diluted to 10^6 CFUs/ml. A 96-well flat bottom plate was filled with 100 μL of this bacterial suspension per well, which was cultured at 37 °C for 36 h to create mature biofilms. […] Plates were sonicated for 10 min after incubation to remove adhering bacteria, and the number of live bacteria was counted microbiologically.

For a further test, the system named is MRSA T144 persisters. Nature of the test: Bactericidal activity against persisters. The class given is cell-based, Staphylococcus aureus. Particulars: within 2 h. The procedure:
Briefly, the bacteria suspensions after washing were exposed to 50-fold MIC concentrations of vancomycin and tigecycline, respectively, and co-incubation for 4 h to obtain persister cells. […] Subsequently, the primary CFUs/mL were calculated.

Converted amounts (≈) assume the structure as drawn. Peptide text beside a SMILES is read from it.

Regarding `CC[C@H](C)[C@H](NC(=O)[C@H](CCCNC(=N)N)NC(=O)[C@H](CS)NC(=O)[C@H](CC(C)C)NC(=O)[C@H](CCCCN)NC(=O)[C@H](CCCCN)NC(=O)[C@H](CC(C)C)NC(=O)[C@@H](NC(=O)[C@H](CCCNC(=N)N)NC(=O)[C@H](CS)NC(=O)[C@H](CC(C)C)NC(=O)[C@H](CCCCN)NC(=O)[C@H](CCCCN)NC(=O)[C@@H](N)CC(C)C)[C@@H](C)CC)C(N)=O` [LI14] (H-LKKLCRILKKLCRI-NH2), the MIC in test [1] was found to be 8 µg/mL (≈ 4.63 µM); against E. faecalis 1F-1, 64 µg/mL (≈ 37.1 µM); in test [2], 8 µg/mL (≈ 4.63 µM); with E. coli ATCC 25922, 8 µg/mL (≈ 4.63 µM); in test [4], 4 µg/mL. Moreover, in test [3] (8 μg/mL LI14, three tested strains, except for MRSA T144), the “Killing of the tested strains at 12 h” value is “completely eliminate”. The “Time to eliminate all E. coli strains” value in test [3] (32 μg/mL LI14, ~10^6 CFUs/mL, 37 °C) was at most 0.5 h. The “Eradication of established biofilms” value in test [5] is “almost eradicated all established biofilms”. Further, the “Clearance rate against persisters” value in the test with MRSA T144 persisters was “above 99%”.
